We go through two molecules from patent US20040101840A1, “Identification, cloning and characterization of a novel pc-1 gene differentially expressed in prostate cells and tissues” (priority 2003, published 2004).

Format in all cases: cell-based, human
Experiment [1] concerns PC-1 gene expression in C4-2 cells. Kind of experiment: Androgen regulation of PC-1 gene expression in C4-2 cells (RT-PCR and Northern blot). The note with it: two days exposure. As to the method:
(§1) Parental LNCaP and its derivative cell lines, C4, C4-2, and C4-2B, were described previously. ARCaP cells, a highly invasive prostate cancer cell line, were generated by our lab from the ascites fluid of a person with Al and aggressive human prostate cancer. All other cell lines were obtained from ATCC and were cultured in TB containing 5% FBS, as described previously. To test the effect of androgen in affecting PC-1 gene expression in prostate cancer cell lines, cells were exposed to a synthetic androgen methyltrioenolone (R1881) at a concentration of 0.1, 1, and 10 nM. To assess the specificity of androgen induction of PC-1 gene expression, some of the cells exposed to 10 nM of R1881 were also treated with an antiandrogen Casodex, 10 μM. […]
(§2) First strain cDNA was synthesized from 1 μg of total RNA with a hexamer random primer obtained from Perkin-Elmer using a MMLV reverse transcriptase obtained from Life Technologies, Inc. (Grand Island, N.Y.) according to the manufacturer's instructions. cDNAs obtained were subjected to Taq DNA polymerase PCR reaction under the condition of 94° for 1 minute, 60° for 1 minute, 72° for 45 seconds, or 94° for 1 minute, 53° for 1 minute, and 72° for 1 minute for 30 cycles, and an extension of 72° for 10 minutes. […] The PCR. products were evaluated on a 1% agarose gel and confirmed by Southern blot analysis. […]

The subject of experiment [2] is PC-1 gene expression in LNCaP cells. The experiment in a line: Androgen regulation of PC-1 gene expression in LNCaP cells (RT-PCR and Northern blot). Conditions: two days exposure. The protocol: as §1, §2
In experiment [3] the test system is D52/N8 gene expression in LNCaP and C4-2 cells. The experiment in a line: Androgen regulation of D52/N8 gene expression in prostate cancer cell lines. The protocol:
as §1, with “[…].” for “All other cell lines were obtained from ATCC and were cultured in TB containing 5% FBS, as described previously.”
as §2

Experiment [4] deals with PC-1 gene expression in LNCaP and C4-2 cells. The experiment in a line: Antiandrogen blockade of androgen-induced PC-1 gene expression in prostate cancer cell lines. As to the method:
Parental LNCaP and its derivative cell lines, C4, C4-2, and C4-2B, were described previously. ARCaP cells, a highly invasive prostate cancer cell line, were generated by our lab from the ascites fluid of a person with Al and aggressive human prostate cancer. […]. To test the effect of androgen in affecting PC-1 gene expression in prostate cancer cell lines, cells were exposed to a synthetic androgen methyltrioenolone (R1881) at a concentration of 0.1, 1, and 10 nM. […] The culture was allowed to continue for two days and total cellular RNA was isolated and subjected to RT-PCR and Northern blot analysis for the expression of PC-1 gene. […]
as §2

SMILES strings stand for the structures.

Regarding `C[C@]1(O)CC[C@H]2[C@@H]3CCC4=CC(=O)CCC4=C3C=C[C@@]21C` [R1881, methyltrioenolone], in experiment [1], the “concentration at which steady-state levels of PC-1 gene expression are increased” value is 0.1 nM. Besides, the “concentration required to increase PC-1 gene expression” value in experiment [2] is listed as 1 nM. Also, the “regulation of D52/N8 expression by androgen” value in experiment [3] (R1881 alone) is recorded as “not regulated”.
As to `CC(O)(CS(=O)(=O)c1ccc(F)cc1)C(=O)Nc1ccc(C#N)c(C(F)(F)F)c1` (stereo not drawn) [Casodex], the “effect on R1881-increased expression of the PC-1 gene” value in experiment [4] (coadministration with R1881, Casodex (10 nM) as printed in FIG. 5 legend) is reported as “blocked”. Also, the “effect on androgen-induced PC-1 gene expression” value in experiment [4] (coadministration with androgen, LNCaP and C4-2) was “effectively terminated”. Further, the “inhibition of D52/N8 expression” value in experiment [3] (coadministration of R1881 and Casodex) is given as “nor was its expression inhibited”.
